Source: the kinase profiling compilation of Christmann-Franck et al. (2016)

What was measured:
Test in all cases: KINOMEscan competition binding
Settings in all cases: compound 0.1 µM
CDK4 CCND3 (human) = CDK4 CCND3 (human) (UniProt P11802+P30281)
CAMK2A (human) = CAMK2A (human) (UniProt Q9UQM7)
EPHB4 (human) = EPHB4 (human) (UniProt P54760)
FLT4 (human) = FLT4 (human) (UniProt P35916)
ADCK3 (human) = ADCK3 (human) (UniProt Q8NI60)
CDK11B (human) = CDK11B (human) (UniProt P21127)
DAPK1 (human) = DAPK1 (human) (UniProt P53355)
PAK1 (human) = PAK1 (human) (UniProt Q13153)
MAPKAPK2 (human) = MAPKAPK2 (human) (UniProt P49137)
RPS6KA3 KD2 (human) = RPS6KA3 KD2 (human) (UniProt P51812)
PRKAA2 (human) = PRKAA2 (human) (UniProt P54646)
ERN1 (human) = ERN1 (human) (UniProt O75460)
MAP4K2 (human) = MAP4K2 (human) (UniProt Q12851)
NEK7 (human) = NEK7 (human) (UniProt Q8TDX7)
STK36 (human) = STK36 (human) (UniProt Q9NRP7)
MARK4 (human) = MARK4 (human) (UniProt Q96L34)
RIOK3 (human) = RIOK3 (human) (UniProt O14730)
[1] = system: EGFR (human), P00533 [T790M/L858R]
ACVR2B (human) = ACVR2B (human) (UniProt Q13705)
ICK (human) = ICK (human) (UniProt Q9UPZ9)
MAPK7 (human) = MAPK7 (human) (UniProt Q13164)
BLK (human) = BLK (human) (UniProt P51451)
LIMK1 (human) = LIMK1 (human) (UniProt P53667)
CSNK1A1 (human) = CSNK1A1 (human) (UniProt P48729)
GRK4 (human) = GRK4 (human) (UniProt P32298)
CHEK1 (human) = CHEK1 (human) (UniProt O14757)
RIOK2 (human) = RIOK2 (human) (UniProt Q9BVS4)
BRAF (human) = BRAF (human) (UniProt P15056)
MAP3K15 (human) = MAP3K15 (human) (UniProt Q6ZN16)
FGFR4 (human) = FGFR4 (human) (UniProt P22455)
TNIK (human) = TNIK (human) (UniProt Q9UKE5)
ULK3 (human) = ULK3 (human) (UniProt Q6PHR2)
MAP2K7 (human) = MAP2K7 (human) (UniProt O14733)
RPS6KA3 KD1 (human) = RPS6KA3 KD1 (human) (UniProt P51812)
EPHA4 (human) = EPHA4 (human) (UniProt P54764)
[2] = system: LRRK2 (human), Q5S007 [G2019S]
PIM3 (human) = PIM3 (human) (UniProt Q86V86)
HIPK1 (human) = HIPK1 (human) (UniProt Q86Z02)
MET (human) = MET (human) (UniProt P08581)
PDPK1 (human) = PDPK1 (human) (UniProt O15530)

Sequence of BLK (human) (P51451 whole entry, looked up): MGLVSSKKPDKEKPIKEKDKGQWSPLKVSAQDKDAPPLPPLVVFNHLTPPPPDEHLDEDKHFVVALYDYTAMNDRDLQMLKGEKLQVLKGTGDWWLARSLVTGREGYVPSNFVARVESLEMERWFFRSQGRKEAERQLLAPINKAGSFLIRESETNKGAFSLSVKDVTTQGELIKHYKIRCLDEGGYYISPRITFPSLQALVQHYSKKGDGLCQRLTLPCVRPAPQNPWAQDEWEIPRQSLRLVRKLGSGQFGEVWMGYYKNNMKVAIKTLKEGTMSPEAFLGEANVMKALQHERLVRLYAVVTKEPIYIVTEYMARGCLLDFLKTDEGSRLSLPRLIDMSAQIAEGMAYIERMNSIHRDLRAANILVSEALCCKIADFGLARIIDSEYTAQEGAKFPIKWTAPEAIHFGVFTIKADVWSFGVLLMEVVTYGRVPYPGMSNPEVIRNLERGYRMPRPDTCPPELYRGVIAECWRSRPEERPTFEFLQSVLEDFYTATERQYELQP
Sequence of MAP2K7 (human) (O14733 whole entry, looked up): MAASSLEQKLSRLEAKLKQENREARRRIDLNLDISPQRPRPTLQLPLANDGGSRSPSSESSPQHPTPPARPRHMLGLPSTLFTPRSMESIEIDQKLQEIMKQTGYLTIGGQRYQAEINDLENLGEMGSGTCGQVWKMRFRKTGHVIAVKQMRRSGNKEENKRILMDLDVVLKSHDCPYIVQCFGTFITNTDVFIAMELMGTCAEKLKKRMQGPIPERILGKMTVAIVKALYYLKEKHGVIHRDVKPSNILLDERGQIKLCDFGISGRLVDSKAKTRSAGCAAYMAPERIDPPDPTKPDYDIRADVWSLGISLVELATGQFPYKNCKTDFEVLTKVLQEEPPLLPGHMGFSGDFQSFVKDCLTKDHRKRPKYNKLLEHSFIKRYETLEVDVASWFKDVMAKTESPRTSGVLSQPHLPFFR
Sequence of CHEK1 (human) (O14757 whole entry, looked up): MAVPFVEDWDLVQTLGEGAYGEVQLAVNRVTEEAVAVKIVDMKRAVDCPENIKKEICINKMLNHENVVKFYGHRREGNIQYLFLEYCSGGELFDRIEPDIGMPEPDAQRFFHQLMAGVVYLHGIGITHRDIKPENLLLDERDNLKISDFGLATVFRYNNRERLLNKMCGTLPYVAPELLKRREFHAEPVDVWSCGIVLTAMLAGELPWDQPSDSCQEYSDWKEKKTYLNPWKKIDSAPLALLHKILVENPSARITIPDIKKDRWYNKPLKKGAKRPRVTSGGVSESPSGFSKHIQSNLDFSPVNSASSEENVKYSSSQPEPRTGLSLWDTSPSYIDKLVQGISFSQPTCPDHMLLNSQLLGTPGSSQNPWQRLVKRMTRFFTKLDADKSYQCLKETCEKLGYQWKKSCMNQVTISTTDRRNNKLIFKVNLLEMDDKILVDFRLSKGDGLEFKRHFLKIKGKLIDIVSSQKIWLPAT
Sequence of ACVR2B (human) (Q13705 whole entry, looked up): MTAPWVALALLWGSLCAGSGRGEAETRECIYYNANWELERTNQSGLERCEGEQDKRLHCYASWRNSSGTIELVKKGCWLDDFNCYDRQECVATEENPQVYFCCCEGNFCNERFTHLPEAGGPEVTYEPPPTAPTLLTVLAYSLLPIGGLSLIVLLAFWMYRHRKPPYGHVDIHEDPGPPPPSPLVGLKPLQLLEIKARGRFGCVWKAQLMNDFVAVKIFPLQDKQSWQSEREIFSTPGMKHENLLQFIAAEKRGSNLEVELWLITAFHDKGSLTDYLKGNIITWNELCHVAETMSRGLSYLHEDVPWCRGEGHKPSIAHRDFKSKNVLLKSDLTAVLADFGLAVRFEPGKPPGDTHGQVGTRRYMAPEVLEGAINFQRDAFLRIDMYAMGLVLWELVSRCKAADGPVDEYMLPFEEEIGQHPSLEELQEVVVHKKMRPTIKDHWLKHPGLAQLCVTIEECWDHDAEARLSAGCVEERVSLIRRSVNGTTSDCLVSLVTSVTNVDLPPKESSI
Sequence of EPHB4 (human) (P54760 whole entry, looked up): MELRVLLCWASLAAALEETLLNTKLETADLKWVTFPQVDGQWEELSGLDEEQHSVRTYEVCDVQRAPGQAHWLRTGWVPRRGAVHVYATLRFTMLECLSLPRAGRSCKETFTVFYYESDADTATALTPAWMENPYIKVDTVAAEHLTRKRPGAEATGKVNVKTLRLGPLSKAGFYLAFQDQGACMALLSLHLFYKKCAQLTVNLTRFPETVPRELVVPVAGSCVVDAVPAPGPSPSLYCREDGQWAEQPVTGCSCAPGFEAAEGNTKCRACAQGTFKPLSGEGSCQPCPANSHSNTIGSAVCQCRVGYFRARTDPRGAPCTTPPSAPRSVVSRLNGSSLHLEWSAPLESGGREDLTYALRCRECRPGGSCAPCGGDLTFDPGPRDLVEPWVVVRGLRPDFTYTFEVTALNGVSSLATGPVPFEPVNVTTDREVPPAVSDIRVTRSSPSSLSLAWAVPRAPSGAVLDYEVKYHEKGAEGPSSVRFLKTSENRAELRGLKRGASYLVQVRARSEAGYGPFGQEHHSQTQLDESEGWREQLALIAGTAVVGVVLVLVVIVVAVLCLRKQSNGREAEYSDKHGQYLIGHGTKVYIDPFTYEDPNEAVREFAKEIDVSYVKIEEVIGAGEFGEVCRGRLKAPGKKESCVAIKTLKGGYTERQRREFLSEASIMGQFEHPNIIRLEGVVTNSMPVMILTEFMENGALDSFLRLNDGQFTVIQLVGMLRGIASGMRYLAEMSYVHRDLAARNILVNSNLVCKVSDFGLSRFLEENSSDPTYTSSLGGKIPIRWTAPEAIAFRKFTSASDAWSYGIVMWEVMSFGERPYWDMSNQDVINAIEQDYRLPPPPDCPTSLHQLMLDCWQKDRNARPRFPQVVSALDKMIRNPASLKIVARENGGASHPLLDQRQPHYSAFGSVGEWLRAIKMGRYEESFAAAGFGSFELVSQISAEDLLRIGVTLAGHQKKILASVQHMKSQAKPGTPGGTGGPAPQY
Sequence of MARK4 (human) (Q96L34 whole entry, looked up): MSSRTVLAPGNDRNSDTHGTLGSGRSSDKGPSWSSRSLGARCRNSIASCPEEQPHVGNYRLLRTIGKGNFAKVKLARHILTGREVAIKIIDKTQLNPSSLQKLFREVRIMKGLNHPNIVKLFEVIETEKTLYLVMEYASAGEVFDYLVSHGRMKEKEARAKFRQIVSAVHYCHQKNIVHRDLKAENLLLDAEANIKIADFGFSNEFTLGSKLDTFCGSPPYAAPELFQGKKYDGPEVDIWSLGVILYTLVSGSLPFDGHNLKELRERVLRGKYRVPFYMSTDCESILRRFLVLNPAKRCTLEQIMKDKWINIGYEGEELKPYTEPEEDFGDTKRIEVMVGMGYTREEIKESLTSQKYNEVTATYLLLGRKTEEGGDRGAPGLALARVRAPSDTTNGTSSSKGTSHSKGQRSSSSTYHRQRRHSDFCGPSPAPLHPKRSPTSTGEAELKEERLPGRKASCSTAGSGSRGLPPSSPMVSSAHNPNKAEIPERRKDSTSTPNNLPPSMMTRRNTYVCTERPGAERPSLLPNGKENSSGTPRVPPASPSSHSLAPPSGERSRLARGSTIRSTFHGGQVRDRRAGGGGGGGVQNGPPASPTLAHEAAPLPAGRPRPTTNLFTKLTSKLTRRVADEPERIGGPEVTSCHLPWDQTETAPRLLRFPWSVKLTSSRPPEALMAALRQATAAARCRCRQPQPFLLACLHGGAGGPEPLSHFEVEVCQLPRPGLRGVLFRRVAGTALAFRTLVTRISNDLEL
Sequence of CDK4 CCND3 (human) (P11802 whole entry, looked up): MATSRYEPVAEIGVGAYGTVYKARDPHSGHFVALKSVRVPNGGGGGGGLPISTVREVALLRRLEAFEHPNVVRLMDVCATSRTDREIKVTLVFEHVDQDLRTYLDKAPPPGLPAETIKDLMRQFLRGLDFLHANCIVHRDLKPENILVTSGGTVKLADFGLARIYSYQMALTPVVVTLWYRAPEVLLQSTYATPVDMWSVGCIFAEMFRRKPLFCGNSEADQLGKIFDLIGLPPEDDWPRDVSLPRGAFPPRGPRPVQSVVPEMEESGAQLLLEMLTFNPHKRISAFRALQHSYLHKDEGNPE
Sequence of CDK4 CCND3 (human) (P30281 whole entry, looked up): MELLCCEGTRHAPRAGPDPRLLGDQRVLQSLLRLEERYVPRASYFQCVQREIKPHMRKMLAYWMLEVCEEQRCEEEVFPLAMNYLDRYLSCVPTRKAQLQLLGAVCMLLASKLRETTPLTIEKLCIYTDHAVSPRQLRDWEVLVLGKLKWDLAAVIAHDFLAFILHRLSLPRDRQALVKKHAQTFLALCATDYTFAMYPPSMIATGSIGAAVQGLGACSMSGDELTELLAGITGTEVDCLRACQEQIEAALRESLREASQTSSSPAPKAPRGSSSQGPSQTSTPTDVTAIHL
Sequence of MAPKAPK2 (human) (P49137 whole entry, looked up): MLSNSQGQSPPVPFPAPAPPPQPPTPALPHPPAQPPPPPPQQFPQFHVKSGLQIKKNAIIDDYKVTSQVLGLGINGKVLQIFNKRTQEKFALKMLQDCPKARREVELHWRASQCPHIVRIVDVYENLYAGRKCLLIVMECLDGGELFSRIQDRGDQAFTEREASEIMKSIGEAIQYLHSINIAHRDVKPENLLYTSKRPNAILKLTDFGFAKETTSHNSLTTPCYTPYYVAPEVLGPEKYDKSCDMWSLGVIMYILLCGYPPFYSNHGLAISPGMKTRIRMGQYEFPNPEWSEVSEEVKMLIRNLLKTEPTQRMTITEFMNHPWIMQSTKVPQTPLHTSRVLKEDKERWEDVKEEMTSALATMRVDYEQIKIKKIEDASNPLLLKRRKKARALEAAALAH

CCc1ccc(C(=O)Nc2cc(CN3CCN(C)CC3)cc(C(F)(F)F)c2)cc1C#Cc1cnc2ccnn2c1
kinase still bound, per cent of control (CDK4 CCND3 (human)): 100%
kinase still bound, per cent of control (CAMK2A (human)): 92%
kinase still bound, per cent of control (EPHB4 (human)): 100%
kinase still bound, per cent of control (FLT4 (human)): 85%
kinase still bound, per cent of control (ADCK3 (human)): 90%
kinase still bound, per cent of control (CDK11B (human)): 100%
kinase still bound, per cent of control (DAPK1 (human)): 100%
kinase still bound, per cent of control (PAK1 (human)): 75%
kinase still bound, per cent of control (MAPKAPK2 (human)): 100%
kinase still bound, per cent of control (RPS6KA3 KD2 (human)): 100%
kinase still bound, per cent of control (PRKAA2 (human)): 100%
kinase still bound, per cent of control (ERN1 (human)): 100%
kinase still bound, per cent of control (MAP4K2 (human)): 100%
kinase still bound, per cent of control (NEK7 (human)): 95%
kinase still bound, per cent of control (STK36 (human)): 84%
kinase still bound, per cent of control (MARK4 (human)): 71%
kinase still bound, per cent of control (RIOK3 (human)): 64%
kinase still bound, per cent of control [1]: 48%
kinase still bound, per cent of control (ACVR2B (human)): 100%
kinase still bound, per cent of control (ICK (human)): 100%
kinase still bound, per cent of control (MAPK7 (human)): 100%
kinase still bound, per cent of control (BLK (human)): 100%
kinase still bound, per cent of control (LIMK1 (human)): 85%
kinase still bound, per cent of control (CSNK1A1 (human)): 100%
kinase still bound, per cent of control (GRK4 (human)): 97%
kinase still bound, per cent of control (CHEK1 (human)): 100%
kinase still bound, per cent of control (RIOK2 (human)): 100%
kinase still bound, per cent of control (BRAF (human)): 53%
kinase still bound, per cent of control (MAP3K15 (human)): 100%
kinase still bound, per cent of control (FGFR4 (human)): 86%
kinase still bound, per cent of control (TNIK (human)): 84%
kinase still bound, per cent of control (ULK3 (human)): 100%
kinase still bound, per cent of control (MAP2K7 (human)): 100%
kinase still bound, per cent of control (RPS6KA3 KD1 (human)): 100%
kinase still bound, per cent of control (EPHA4 (human)): 97%
kinase still bound, per cent of control [2]: 94%
kinase still bound, per cent of control (PIM3 (human)): 77%
kinase still bound, per cent of control (HIPK1 (human)): 100%
kinase still bound, per cent of control (MET (human)): 100%
kinase still bound, per cent of control (PDPK1 (human)): 100%
